Earlier results in patent US20030129242A1, “Sterile filtered nanoparticulate formulations of budesonide and beclomethasone having tyloxapol as a surface stabilizer” (priority 2002, published 2003).

| SMILES | solubility in chloroform (chloroform) | solubility in ethanol (ethanol) | solubility in heptane (heptane) | solubility in water |
| --- | --- | --- | --- | --- |
| CCCC1O[C@@H]2C[C@H]3C4CCC5=CC(=O)C=CC5(C)[C@H]4[C@@H](O)CC3(C)C2(C(=O)CO)O1 (mixture of isomers) [Budesonide, (RS)-11,16, 17,21-Tetrahydroxy-pregna-1,4-diene-3,20-dione cyclic 16,17-acetal with butraldehyde] | freely soluble | sparingly soluble | practically insoluble | practically insoluble |
| CC1(C)O[C@@H]2C[C@H]3[C@@H]4C[C@H](F)C5=CC(=O)C=C[C@]5(C)[C@H]4[C@@H](O)C[C@]3(C)[C@]2(C(=O)CO)O1 [Flunisolide, 6α-fluoro-11β, 16α, 17,21-tetrahydroxy-pregna-1,4-diene-3,20-dione cyclic-16,17-acetal with acetone] | – | – | – | practically insoluble |
